In patent EP1283052A1, “Pharmaceutical composition containing caspase-8 and /or caspase-9 useful for overcoming glucocorticoid- and cancer therapy-induced apoptosis of tumours” (Deutsches Krebsforschungszentrum Stiftung des öffentlichen …, priority 2001, dated 2003):

Legend:
caspase-9 and -6 = assay: Fluorometric caspase-6/9 activity assay in CEM cells; assay type: cell-based, human; settings: cisplatin 2 µg/ml alone, Fig. 5a
Description: (§1) • (a) P693 and CEM cells were treated with cisplatin (2 µg/ml) in the absence or presence of DEX (1 µM) as indicated. 24 and 48 h following treatment cells were lysed and caspase-9 activity was determined using a fluorescent caspase-9 assay and spectroscopy. • (b) P5 and CEM cells were treated as described above. 24 h after stimulation Apaf-1 was immunoprecipitated from the cell extracts using a […]. Aliquotes of the precipitates were separated by three different gels and analysed by Western blotting using rabbit polyclonal Apaf-1, mAb cytochrome c or caspase-9 antibodies. The antibody heavy chain band (IgGH) ensures equal conditions. […]
(§2) • (A) Cell culture. […] The mice were given 0.28 mg/L DEX in drinking water, and the amount of water consumed was monitored. […] The tumour volumes were measured using callipers, and calculated using, as an approximation, the formula for volume of a hemi-ellipsoid: π(width^2 x length)/6. […] Early apoptotic changes were identified by staining of cells with fluoresceinthiocyanate (FITC)-conjugated annexin V and propidium iodide (Becton Dickinson, Heidelberg, Germany) and analysed by flow cytometry (FACScan, Becton Dickinson) as described (Herr et al., EMBO J. 16 (1997), 6200-6208) • (E) Immunohistochemistry. […] Bound antibodies were detected by FITC conjugated anti-mouse or anti-rabbit IgG (Molecular Probes Europe, Leiden, The Netherlands). […]

apoptosome = assay: Co-immunoprecipitation of apoptosome proteins with Apaf-1 in P5 cells; assay type: cell-based, human; settings: carcinoma cells (P5), cisplatin, 24 h; Fig. 5b
Description: as §1, §2

With `N.N.[Cl][Pt][Cl]` [cisplatin] the caspase-6/9 activity (caspase-9 and -6) was “induced 24 h following cisplatin in P693 and CEM cells with increasing activity at 48 h” and the “amounts of immunoprecipitated apoptosome members (APAF-1, caspase-9, cytochrome c)” value (apoptosome) was “strong induction in the amounts of APAF-1, caspase-9 and cytochrome c”.
